Experimental data: US8853226B2, “Tricyclic compounds as modulators of TNF-α synthesis and as PDE4 inhibitors” (High Point Pharmaceuticals, LLC, priority 2008, dated 2014)
Counter-ions that a name gives are not always drawn.

What was measured:
PDE4D = PDE4D (Homo sapiens (Human), UniProt Q08499); assay: PDE4 Inhibition Assay (TR-FRET IMAP, FAM-cAMP substrate); type: biochemical; settings: 100 nM cAMP, 30° C., 90 minutes
Procedure: (§1) A TR-FRET-based phosphodiesterase assay kit from “Molecular Devices” was used to test whether these compounds were indeed direct inhibitors of the PDE4 enzyme. Using Roflumilast as a positive control, compounds of the present invention were tested against fluorescein-labeled cAMP substrate. The principle of the assay is based on the binding of a nucleotide monophosphate generated upon cAMP conversion to 5′ AMP by PDE to an “IMAP binding reagent”, which in turn is also ligated to a separate complex carrying terbium (Tb)-donor molecule. Proximity of the fluoreceinated 5′AMP to the Tb donor generates Fluorescence Resonance Energy Transfer. A PDE inhibitor will reduce the conversion of cAMP to 5′AMP, thus reducing monophosphate that can bind to the IMAP binding reagent and reduce the resulting FRET signal.
(§2) The assay buffer was prepared by diluting 5× supplied Tween-based buffer in 1:5 in water to make 1× buffer. Add desired additive to buffer (DTT or MnCl2). In a separate 96-well polypropylene plate, compound dilutions were prepared in assay buffer. Separate microcentrifuge tubes were prepared of PDE4B and PDE4D according to assay template—in assay buffer. The tubes were kept on ice. The enzyme concentration shown on the template were diluted by 1:4. FAM-cAMP substrate solution was prepared according to assay template. 5 μl compound was transferred from polypropylene plate into black 384-well plate. This plate was centrifuged briefly to make sure all 5 μl is on the bottom. Up to 80 μl of prepared PDE4B enzyme solution was transferred into alternate wells on row ‘N’ of 384-well plate starting from cell N1. Up to 80 μl of prepared PDE4D enzyme solution was transferred into alternate wells on row ‘O’ of 384-well plate, starting from cell O2. cAMP substrate solution was transferred into bottom row of separate 96-well plate. 5 μl of enzyme solution from the “reservoir” row (N or O) was transferred to each of the wells containing compounds, per layout map. Next, 10 μl of cAMP substrate was transferred to these wells. The order of substrate-first or enzyme-first can be switched depending on what is optimal. The final cAMP concentration was 100 nM in the reaction. 20 μl of assay buffer was pipetted into 4 separate wells—these are the blanks. The plate was sealed with an aluminum strip and incubated at 30° C. for 90 minutes. A TR-FRET solution was prepared. […]. 25 μl ( 1/800 of 20 ml) of binding beads was added to this and mix by inverting. 60 μl of this mixture was pipetted into 2 of the wells containing the “blank” assay buffer. Next, 49.7 μl ( 1/400 of remaining volume) of Tb donor solution was added to the remaining TR-FRET solution and mixed by inverting. 60 μl of this solution was pipetted into remaining 2 “blank” assay buffer-containing wells. The TR-FRET solution was poured into a pipette boat and a multichannel pipette was used to drop 60 μl of solution into all assay wells. The wells were covered with a foil strip and incubated for at least 3 hours or overnight protected from light (e.g. in a drawer) at room temperature. The plate was read on the Envision Reader: Emission 1: 520/Emission 2: 486/Exc: 340. Mirror: Umbelliferone (UV).

PDE4B2 = PDE4B2 (Homo sapiens (Human), UniProt Q07343); assay: as above; type: biochemical; settings: 100 nM cAMP, 30° C., 90 minutes
Chain of PDE4B2 (Q07343 other isoform, or with tags, fused parts or gaps, species assumed): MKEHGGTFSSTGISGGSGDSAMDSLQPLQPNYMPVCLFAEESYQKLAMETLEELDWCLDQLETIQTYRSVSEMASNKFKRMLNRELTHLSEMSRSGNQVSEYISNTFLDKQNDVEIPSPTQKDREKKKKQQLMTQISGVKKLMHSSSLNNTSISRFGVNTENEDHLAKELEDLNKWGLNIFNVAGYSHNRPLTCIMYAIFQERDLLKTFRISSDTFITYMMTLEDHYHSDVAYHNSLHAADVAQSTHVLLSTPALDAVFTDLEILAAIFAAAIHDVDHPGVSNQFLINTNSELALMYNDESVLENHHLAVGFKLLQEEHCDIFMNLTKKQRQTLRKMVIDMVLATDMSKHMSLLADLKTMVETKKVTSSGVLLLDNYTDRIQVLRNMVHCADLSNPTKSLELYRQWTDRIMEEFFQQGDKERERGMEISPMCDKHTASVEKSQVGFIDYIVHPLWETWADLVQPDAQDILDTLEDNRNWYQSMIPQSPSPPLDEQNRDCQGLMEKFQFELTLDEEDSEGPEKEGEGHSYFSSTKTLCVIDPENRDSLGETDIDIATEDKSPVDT
Procedure: as §1, §2

Chain of PDE4D (Q08499 whole entry, species assumed): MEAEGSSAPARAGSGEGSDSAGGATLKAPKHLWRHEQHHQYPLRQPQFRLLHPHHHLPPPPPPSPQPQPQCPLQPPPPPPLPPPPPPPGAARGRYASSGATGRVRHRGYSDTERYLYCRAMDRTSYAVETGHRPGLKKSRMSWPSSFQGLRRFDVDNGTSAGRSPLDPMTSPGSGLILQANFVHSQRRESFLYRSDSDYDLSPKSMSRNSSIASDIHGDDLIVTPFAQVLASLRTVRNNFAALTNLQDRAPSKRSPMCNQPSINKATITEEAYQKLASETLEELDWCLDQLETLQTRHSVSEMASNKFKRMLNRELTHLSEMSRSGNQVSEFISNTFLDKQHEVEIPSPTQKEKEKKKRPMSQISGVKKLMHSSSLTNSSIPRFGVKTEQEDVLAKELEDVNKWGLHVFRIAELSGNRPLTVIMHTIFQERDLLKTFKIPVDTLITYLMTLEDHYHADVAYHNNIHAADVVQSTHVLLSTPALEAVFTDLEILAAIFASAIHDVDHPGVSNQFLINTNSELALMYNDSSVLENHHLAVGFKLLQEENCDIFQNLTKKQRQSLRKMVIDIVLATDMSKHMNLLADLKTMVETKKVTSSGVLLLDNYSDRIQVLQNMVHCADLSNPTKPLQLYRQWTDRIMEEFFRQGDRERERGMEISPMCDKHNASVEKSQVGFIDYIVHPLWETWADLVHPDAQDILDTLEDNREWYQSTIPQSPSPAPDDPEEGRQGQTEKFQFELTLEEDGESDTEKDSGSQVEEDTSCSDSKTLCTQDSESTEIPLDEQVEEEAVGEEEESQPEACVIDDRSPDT

`CCn1c(=O)c2cnc3c(Cl)cccc3c2n(C2CCCC2)c1=O` [Example 30, 7-Chloro-1-cyclopentyl-3-ethyl-1H-pyrimido[5,4-c]quinoline-2,4-dione] showed an IC50 (PDE4D) of 25 µM and an IC50 (PDE4B2) of 17 µM.

`CCCc1cccc2c1ncc1c(=O)n(CC)c(=O)n(C3CCCC3)c12` [Example 32, 1-Cyclopentyl-3-ethyl-7-propyl-1H-pyrimido[5,4-c]quinoline-2,4-dione] was tested, and the IC50 (PDE4D) was 25 µM and the IC50 (PDE4B2) was 25 µM.

Compound `CCn1c(=O)c2cnc3c(C(C)C)cccc3c2n(C2CCCC2)c1=O` [Example 33, 1-Cyclopentyl-3-ethyl-7-isopropyl-1H-pyrimido[5,4-c]quinoline-2,4-dione] has an IC50 (PDE4D) of 25 µM and an IC50 (PDE4B2) of 12.4 µM.

Compound `COc1cccc2c1ncc1c(=O)n(-c3cc(C)cs3)c(=O)n(C3CCCC3)c12` [Example 51, 1-Cyclopentyl-7-methoxy-3-(4-methyl-thiophen-2-yl)-1H-pyrimido[5,4-c]quinoline-2,4-dione] has an IC50 (PDE4D) of 0.616 µM and an IC50 (PDE4B2) of 0.126 µM.

In the case of `COc1cccc2c1ncc1c(=O)n(-c3cccc(C)c3)c(=O)n(C3CCCC3)c12` [Example 54, 1-Cyclopentyl-7-methoxy-3-m-tolyl-1H-pyrimido[5,4-c]quinoline-2,4-dione], the IC50 (PDE4D) is reported as 0.338 µM and the IC50 (PDE4B2) is reported as 0.078 µM.

`COc1cccc2c1ncc1c(=O)n(-c3ccc4c(c3)OCO4)c(=O)n(C3CCCC3)c12` [Example 84, 3-Benzo[1,3]dioxol-5-yl-1-cyclopentyl-7-methoxy-1H-pyrimido[5,4-c]quinoline-2,4-dione] showed an IC50 (PDE4D) of 0.827 µM and an IC50 (PDE4B2) of 0.513 µM.

In the case of `COc1cccc2c1ncc1c(=O)n(-c3cccc(Cl)c3)c(=O)n(C3CCN(S(C)(=O)=O)CC3)c12` [Example 92, 3-(3-Chloro-phenyl)-1-(1-methanesulfonyl-piperidin-4-yl)-7-methoxy-1H-pyrimido[5,4-c]quinoline-2,4-dione], the IC50 (PDE4D) is reported as 0.151 µM and the IC50 (PDE4B2) is reported as 0.068 µM.

For `COc1cccc2c1ncc1c(=O)n(-c3cccc(Cl)c3)c(=O)n([C@H]3CC[C@H](C(=O)O)CC3)c12` [Example 103, Trans-4-[3-(3-Chloro-phenyl)-7-methoxy-2,4-dioxo-3,4-dihydro-2H-pyrimido[5,4-c]quinolin-1-yl]-cyclohexanecarboxylic acid.hydrochloride], the IC50 (PDE4D) was 0.055 µM and the IC50 (PDE4B2) was 0.017 µM.

`COc1cccc2c1ncc1c(=O)n(-c3cccc(Cl)c3)c(=O)n([C@@H]3CCN(S(C)(=O)=O)C3)c12` [Example 115, 3-(3-Chloro-phenyl)-1-((R)-1-methanesulfonyl-pyrrolidin-3-yl)-7-methoxy-1H-pyrimido[5,4-c]quinoline-2,4-dione] gave an IC50 (PDE4D) of 0.163 µM and an IC50 (PDE4B2) of 0.049 µM.

`COc1cccc2c1ncc1c(=O)n(-c3cccc(Cl)c3)c(=O)n([C@H]3CCN(S(C)(=O)=O)C3)c12` [Example 118, 3-(3-Chloro-phenyl)-1-((S)-1-methanesulfonyl-pyrrolidin-3-yl)-7-methoxy-1H-pyrimido[5,4-c]quinoline-2,4-dione] gave an IC50 (PDE4D) of 0.206 µM and an IC50 (PDE4B2) of 0.08 µM.

With `CCS(=O)(=O)N1CCC(n2c(=O)n(-c3cccc(Cl)c3)c(=O)c3cnc4c(OC)cccc4c32)CC1` [Example 121, 3-(3-Chloro-phenyl)-1-(1-ethanesulfonyl-piperidin-4-yl)-7-methoxy-1H-pyrimido[5,4-c]quinoline-2,4-dione] the IC50 (PDE4D) was 0.059 µM and the IC50 (PDE4B2) was 0.026 µM.

`COc1cccc2c1ncc1c(=O)n(-c3cccc(Cl)c3)c(=O)n([C@H]3CC[C@H](NS(C)(=O)=O)CC3)c12` [Example 127, N-{4-[(S)-3-(3-Chloro-phenyl)-7-methoxy-2,4-dioxo-3,4-dihydro-2H-pyrimido[5,4-c]quinolin-1-yl]-trans-cyclohexyl}-methanesulfonamide] gave an IC50 (PDE4D) of 0.073 µM and an IC50 (PDE4B2) of 0.025 µM.
